Assay results: US20180105492A1, “COMPOUNDS DERIVED FROM 3-ALKYLAMINE-1H-INDOLYL ACRYLATE AND THEIR USE IN THE TREATMENT OF NEURODEGENERATIVE DISEASES” (FUNDACION PARA LA INVESTIGACION BIOMEDICA DEL HOSPITAL …, priority 2014, published 2018)

Experiments:
[1] = Oxygen radical absorbance capacity (ORAC), free radical scavenger capacity; conditions: fluorescein/AAPH, pH 7.4, trolox = 1
Procedure: In order to study the potential antioxidant effect of the compounds of the invention, we performed an oxygen radical absorbance capacity (ORAC) experiment.
For studying the free radical scavenger capacity, we measured the degree peroxide radical inhibition. Thus, scavenger capacity is measured as trolox equivalents and includes the disappearance of free radicals over time and the decrease of oxidative damage at the end of the experiment. The protocol used is based in the protocol developed by Ou and col. (Ou y col., 2001, J Agric Food Chem, 49: 4619-26) partially modified by Dávalos and col. (Davalos y col., 2004, J Agric Food Chem, 52: 48-54). The reaction was performed in phosphate tampon 75 mM (pH 7.4), with a final volume of 200 μL. 150 μL of fluorescein (final concentration of 70 nM) with 25 μL the compound of study at the desired concentration in triplicates, using surface transparent 96 well black plates for measuring fluorescence.
The mixture was pre-incubated during 15 min at 37° C. and, afterwards, 25 μL of a solution containing 2,2′-Azobis(2-amidinopropane) dihydrochloride (AAPH) (final concentration; 12 mM) were rapidly added. Fluorescence was immediately measured using a plate reader fluostar optima, using the filters of emission and excitation of […], respectively. Fluorescence intensity was measured during 90 min. Each compound was measured at 6 different concentrations. In the assay, fluorescein+AAPH in phosphate tampon was added as a blank and a calibration curve was performed using Trolox (1-8 μM). Every variable was prepared in duplicates and at least three independent experiments were performed for each compound. The curves of the compounds (F.I.—time) were normalized respect to the curve of the blank for each experiment and area under the curve (AUC) of the decreasing in fluorescence was calculated. AUC value of each compound was calculated subtracting the AUC of the blank. Regression curves between AUC and concentration of the compound were calculated for each of the samples. ORAC values were expressed as trolox equivalents with respect to the calibration curve of each assay, where the trolox value was considered 1.

[2] = test system: HepG2 cells; assay: Hepatotoxicity in HepG2 cell line, reduction of cell viability (MTT); type: cell-based
Procedure: In order to assess cellular viability, we measured the metabolic reduction of 3-(4,5-Dimethylthiazol-2-yl)-2,5 diphenyltetrazolium bromide (MTT). MTT is an indirect assay to measure cellular viability. It is a colorimetric method based on the reduction of 3-(4,5-Dimethylthiazol-2-yl)-2,5 diphenyltetrazolium. This process is performed by the mitochondrial enzyme succinate-dehydrogenase present in metabolic active cells. Thus, the water-soluble yellow MTT (tetrazolium salt) is transformed into a insoluble purple compound (formazan). Quantity of living cells is directly proportional to the quantity of formazan (Mosmann, 1983, J Immunol Methods, 65: 55-63). […] Therefore, with this assay we can measure cellular surviving and proliferation and also, we can determine the cytotoxicity of potential neuroprotective compounds. In order to assess cellular viability in SH-SY5Y cell line, we added 30 μl/well of MTT (5 mg/mL) and after 2 h, medium was carefully removed to avoid losing the formazan and was diluted in 300 μL of DMSO. Afterwards, samples were transferred to a 96 well-plate and the absorbance was measured at 570 nm using a absorbance/fluorescence reader FluoStar optima®. Every MTT assay was performed in triplicates. Absorbance values obtained with the toxic alone were subtracted to the absorbance values obtained in basal conditions (without treatment). That result was considered as the 100% of cell death and the values obtained with the compounds in the presence of the toxic stimulus were normalized as percentages of that value. For determining the surviving percentage, those percentages of cell death were subtracted to 100.
In general, compounds capable of inducing the transcription factor Nrf2 may have a hepatotoxic effect, due to the electrophilic character that generally characterizes them. The derivatives objects of this invention were designed to avoid this toxicity and to improve its safety profile. The liver plays an essential role in the metabolism of endogenous and exogenous compounds. Hepatocytes capture these compounds and after metabolizing them, they are eliminated by different mechanisms. Metabolized compounds usually have less pharmacological activity and less toxicity than the corresponding active principles. However, in certain cases, the active principles or their metabolites may be toxic to the hepatocytes. Hepatic toxicity is one of the leading causes of drug withdrawal from preclinical studies. […] In addition, these cells have been defined by the European Medicines Agency (EMA) as a model of hepatoxicity by measuring the induction of apoptosis and/or cell survival. Therefore, the safety profile of the compounds object of the present invention was evaluated in the HepG2 hepatic cancer cell line. HepG2 cells were cultured in T75 flask using EMEM as culture medium supplemented with non-essential amino acids, 10% fetal bovine serum, 50 units/mL penicillin and 50 μg/mL streptomycin (reagents from GIBCO, Madrid, Spain). Cultures were maintained in an incubator with an O2/CO2 gas mixture (95/5%) at 37° C. with a humid atmosphere and two passes per week were made when they reached 90% of confluence. All experiments were performed on cells that were between passages 5 and 15. For the experiments, the cells were plated in 96-well plates at a density of 4×10 ^4 cells/well in 200 μl of culture medium. After 24 h in culture, the medium was removed and replaced with 100 μL of the corresponding solution of the compounds of the invention in culture medium at the selected concentrations (1, 10, 30 and 100 μM). The compounds were studied in triplicate, including in each experiment 3 wells without treatment, which was considered as 100% of viability (baseline conditions). After 24 h of incubation with the treatments, cell viability was assessed by the MTT reduction method. […]

[3] = 24 h incubation, MTT, concentration reducing viability to 50% of basal

## C/C=C/C(=O)Oc1ccc2[nH]cc(CCNC(C)=O)c2c1 [Compound 1, 3-(2-acetamidoethyl)-1H-indol-5-yl (E)-2-butenoate]
[1]
  ORAC (Trolox eq.): 8.64 ± 1.98 Trolox eq.
[2]; [3]
  HepG2 LD50: >100 µM

## CC(=O)NCCc1c[nH]c2ccc(OC(=O)/C=C/c3ccccc3)cc12 [Compound 2, 3-(2-acetamidoethyl)-1H-indol-5-yl cinnamate]
[1]
  ORAC (Trolox eq.): 4.30 ± 0.50 Trolox eq.
[2]; [3]
  HepG2 LD50: >100 µM

## CC(=O)NCCc1c[nH]c2ccc(OC(=O)/C=C/c3ccc(C)cc3)cc12 [Compound 3, 3-(2-acetamidoethyl)-1H-indol-5-yl (E)-3-(4-methylphenyl)acrylate]
[1]
  ORAC (Trolox eq.): 4.44 ± 0.51 Trolox eq.
[2]; [3]
  HepG2 LD50: >100 µM

## COc1ccccc1/C=C/C(=O)Oc1ccc2[nH]cc(CCNC(C)=O)c2c1 [Compound 4, 3-(2-acetamidoethyl)-1H-indol-5-yl (E)-3-(2-methoxyphenyl)acrylate]
[1]
  ORAC (Trolox eq.): 3.02 ± 0.20 Trolox eq.
[2]; [3]
  HepG2 LD50: >100 µM

## COc1cccc(/C=C/C(=O)Oc2ccc3[nH]cc(CCNC(C)=O)c3c2)c1 [Compound 5, 3-(2-acetamidoethyl)-1H-indol-5-yl (E)-3-(3-methoxyphenyl)acrylate]
[1]
  ORAC (Trolox eq.): 3.52 ± 0.27 Trolox eq.
[2]; [3]
  HepG2 LD50: >100 µM

## COc1ccc(/C=C/C(=O)Oc2ccc3[nH]cc(CCNC(C)=O)c3c2)cc1 [Compound 6, 3-(2-acetamidoethyl)-1H-indol-5-yl (E)-3-(4-methoxyphenyl)acrylate]
[1]
  ORAC (Trolox eq.): 3.51 ± 0.27 Trolox eq.
[2]; [3]
  HepG2 LD50: >100 µM

## CC(=O)NCCc1c[nH]c2ccc(OC(=O)/C=C/c3ccc(O)cc3)cc12 [Compound 7, 3-(2-acetamidoethyl)-1H-indol-5-yl (E)-3-(4-hydroxyphenyl)acrylate]
[1]
  ORAC (Trolox eq.): 9.21 ± 0.81 Trolox eq.
[2]; [3]
  HepG2 LD50: >100 µM

## COc1cc(/C=C/C(=O)Oc2ccc3[nH]cc(CCNC(C)=O)c3c2)ccc1O [Compound 8, 3-(2-acetamidoethyl)-1H-indol-5-yl (E)-3-(4-hydroxy-3-methoxyphenyl)acrylate]
[1]
  ORAC (Trolox eq.): 8.04 ± 0.66 Trolox eq.
[2]; [3]
  HepG2 LD50: >100 µM

## CC(=O)NCCc1c[nH]c2ccc(OC(=O)/C=C/c3ccc(F)cc3)cc12 [Compound 9, 3-(2-acetamidoethyl)-1H-indol-5-yl (E)-3-(4-fluorophenyl)acrylate]
[1]
  ORAC (Trolox eq.): 3.44 ± 0.67 Trolox eq.
[2]; [3]
  HepG2 LD50: >100 µM

## CC(=O)NCCc1c[nH]c2ccc(OC(=O)/C=C/c3ccc(Br)cc3)cc12 [Compound 10, 3-(2-acetamidoethyl)-1H-indol-5-yl (E)-3-(4-bromophenyl)acrylate]
[1]
  ORAC (Trolox eq.): 2.53 ± 0.18 Trolox eq.
[2]; [3]
  HepG2 LD50: >100 µM

## CC(=O)NCCc1c[nH]c2ccc(OC(=O)/C=C/c3ccc(Cl)cc3)cc12 [Compound 11, 3-(2-acetamidoethyl)-1H-indol-5-yl (E)-3-(4-chlorophenyl)acrylate]
[1]
  ORAC (Trolox eq.): 2.91 ± 0.32 Trolox eq.
[2]; [3]
  HepG2 LD50: >100 µM

## CC(=O)NCCc1c[nH]c2ccc(OC(=O)/C=C/c3ccc(Cl)c(Cl)c3)cc12 [Compound 12, 3-(2-acetamidoethyl)-1H-indol-5-yl (E)-3-(3,4-dichlorophenyl)acrylate]
[1]
  ORAC (Trolox eq.): 5.37 ± 0.38 Trolox eq.
[2]; [3]
  HepG2 LD50: >100 µM

## CC(=O)NCCc1c[nH]c2ccc(OC(=O)/C=C/c3ccccc3C(F)(F)F)cc12 [Compound 13, 3-(2-acetamidoethyl)-1H-indol-5-yl (E)-3-(2-(trifluoromethyl)phenyl)acrylate]
[1]
  ORAC (Trolox eq.): 3.33 ± 0.28 Trolox eq.
[2]; [3]
  HepG2 LD50: >100 µM

## CC(=O)NCCc1c[nH]c2ccc(OC(=O)/C=C/c3cccc(C(F)(F)F)c3)cc12 [Compound 14, 3-(2-acetamidoethyl)-1H-indol-5-yl (E)-3-(3-(trifluoromethyl)phenyl)acrylate]
[1]
  ORAC (Trolox eq.): 4.13 ± 0.39 Trolox eq.
[2]; [3]
  HepG2 LD50: >100 µM

## CC(=O)NCCc1c[nH]c2ccc(OC(=O)/C=C/c3ccc(C(F)(F)F)cc3)cc12 [Compound 15, 3-(2-acetamidoethyl)-1H-indol-5-yl (E)-3-(4-(trifluoromethyl)phenyl)acrylate]
[1]
  ORAC (Trolox eq.): 3.97 ± 0.38 Trolox eq.
[2]; [3]
  HepG2 LD50: >100 µM

## CC(=O)NCCc1c[nH]c2ccc(OC(=O)/C=C/c3ccc([N+](=O)[O-])cc3)cc12 [Compound 16, 3-(2-acetamidoethyl)-1H-indol-5-yl (E)-3-(4-nitrophenyl)acrylate]
[1]
  ORAC (Trolox eq.): 4.12 ± 0.49 Trolox eq.
[2]; [3]
  HepG2 LD50: >100 µM

## COc1ccc2[nH]cc(CCNC(C)=O)c2c1 [Melatonin, reference compound]
[2]; human, 24 h
  HepG2 LD50: >100 µM
